Entries after “also recorded” stand apart in the source; their conditions may differ.
What was measured:
[1] = test system: KCL-22M cells
Procedure: Cell cycle was analyzed by fixing cells with 70% ethanol at −20° C. overnight. After washing, cells were resuspended in phosphate-buffered saline containing 1 mg/ml RNase A, incubated for 30 min at 37° C., and then stained with propidine iodine (50 μg/ml) for 30 min at room temperature before flow cytometry analysis. Cell proliferation was analyzed using a XTT Cell Proliferation kit (Roche Applied Science), and apoptosis was analyzed with annexin V kit (BD Pharmingen) as per the manufacturer's instruction.

[2] = test system: HIC1; experiment: HIC1 expression / SIRT1 level after HDAC and DNMT inhibitors; type: cell-based, human; conditions: KCL-22 cells, alone or in combination
Text: Total cellular RNA with Trizol (Invitrogen) using a standard protocol. First strand DNA was synthesized and HIC1 expression by quantitative real-time RT-PCR using a kit with SYBR Green label (Invitrogen) as per the manufacture's instruction on a BioRad machine OPTICON. The following are the HIC1 primers (spanning introns), 5′-[…]-3′(exon 1a) and 5′-[…]-3′ (Exon 2). [>ref|NT—010718.15|Hs17—10875:1561637-1565694 Homo sapiens chromosome 17 genomic contig, reference assembly]
SIRT1 expression was analyzed by Western blot using 1:5000 diluted rabbit monoclonal SIRT1 antibody (Epitomics). Controls used were GAPDH or actin as loading controls with rabbit anti-GAPDH (Trevigen) or anti-actin (Sigma) at 1:5000 dilution. GAPDH [>ref|NT—009759.15|Hs12—9916:6497433-6502281 Homo sapiens chromosome 12 genomic contig, reference assembly] primers used are as follows: […]

[3] = test system: KCL-22 cells; experiment: Resistance assay: relapse of KCL-22 cells in prolonged liquid culture (CML acquired resistance model); type: cell-based, human; conditions: for relapse of KCL-22 cells on 5 μM STI-571 in combination / cell death by the inhibitor alone: 300 μM splitomicin or 15 mM nicotinamide; for cell death by the inhibitor alone: first two weeks; for relapse of KCL-22 cells on imatinib (STI-571) in combination with the inhibitor: prolonged culture
Text: (§1) Cells were maintained in these cultures without changing medium.
Cells were maintained in these cultures without changing medium. Aliquots of cells were taken out at specified time points and cell numbers counted using a hematocytometer. Cell viability was accessed by trypan blue exclusion where necessary.

[4] = test system: BCR-ABL mutants; conditions: cited from earlier work
[5] = test system: CML patients with T315I mutation; conditions: human, in vivo; cited from earlier work
[6] = target: T1, SIRT1 (Homo sapiens, UniProt Q96EB6); experiment: FRET-based SIRT1 inhibition assay; conditions: All compounds in 50 μM
T1 sequence (Q96EB6 1-747): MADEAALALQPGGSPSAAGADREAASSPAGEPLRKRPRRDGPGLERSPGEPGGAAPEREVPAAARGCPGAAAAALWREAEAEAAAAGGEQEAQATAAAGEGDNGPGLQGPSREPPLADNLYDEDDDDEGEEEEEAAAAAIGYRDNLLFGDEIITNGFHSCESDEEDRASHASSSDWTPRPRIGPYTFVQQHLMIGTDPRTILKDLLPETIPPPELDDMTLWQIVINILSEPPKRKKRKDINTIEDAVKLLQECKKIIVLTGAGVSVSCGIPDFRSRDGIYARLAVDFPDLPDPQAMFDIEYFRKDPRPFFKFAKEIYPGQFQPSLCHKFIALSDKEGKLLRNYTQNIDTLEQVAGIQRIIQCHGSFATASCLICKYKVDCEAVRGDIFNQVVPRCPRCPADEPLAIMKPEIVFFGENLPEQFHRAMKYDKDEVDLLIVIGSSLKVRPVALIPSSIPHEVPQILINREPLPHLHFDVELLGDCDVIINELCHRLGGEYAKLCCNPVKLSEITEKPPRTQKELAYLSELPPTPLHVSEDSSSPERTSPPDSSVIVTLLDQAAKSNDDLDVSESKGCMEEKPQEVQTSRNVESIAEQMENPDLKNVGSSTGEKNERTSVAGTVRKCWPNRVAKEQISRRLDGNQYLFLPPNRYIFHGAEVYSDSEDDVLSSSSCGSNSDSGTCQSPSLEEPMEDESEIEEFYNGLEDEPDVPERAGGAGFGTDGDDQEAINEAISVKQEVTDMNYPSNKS

[7] = test system: FOXO1; experiment: Flow cytometry assay of acetylation of FOXO1 in KCL-22 cells; type: cell-based, human; conditions: compound treatment for 24 h
Procedure: SIRT1 inhibitor-induced acetylation of cellular SIRT1 substrates, Ku70 and FOXO proteins, are determined by immunoprecipitation of these proteins followed by Western blot analysis for acetyl lysine. Acetylation of FOXO1 is also directly examined by flow cytometry-based analysis as done in FIG. 40D.

[8] = test system: SD1 cells; experiment: Resistance assay in BCR-ABL positive ALL cells; type: cell-based, human; conditions: 50 μM sirtinol alone or in combination with STI-571, prolonged culture
Procedure: as §1
The ability of sirtinol and imatinib to block resistance related to BCR-ABL mutations and non-mutants was determined in acute lymphocytic leukemia (ALL) cells.

[9] = test system: K562 cells; experiment: Growth factor-induced transient resistance (serum-free medium, basic supplements, insulin); type: cell-based, human
Procedure: (A) Growth curves of K562 cells in serum medium, and serum-free medium supplied with basic supplements containing 5 μg/ml insulin and 5 μg/ml transferrin (basic) with or without 75 ng/ml EGF, 25 μg/ml HDL or both (EH). […] Relative survival of imatinib treated cells was calculated by comparison to no drug treatment. Pre-incubation for two days renders resistance. […] Since sirtinol is insoluble in SF medium, HDL 25 μg/ml was added to help dissolve the drug. (D) Effects of basic supplements in serum medium. […] Viable cells were counted one and three days after the treatment. […] (F) Effects of insulin in resistance.
Whether serum-free medium supplied with select growth factors provides a better culture environment for developing CML chemoresistance was determined. Serum-free (SF) medium with insulin, transferring, epidermal growth factor (EGF) and high density lipoprotein (HDL) was used. SF medium with the basic supplements (5 μg/ml insulin and 5 μg/ml transferring) was sufficient to support growth of both K562 cells (FIG. 13A) and KCL-22 cells. […] Sirtinol is able to overcome CML resistance in SF culture.
Transient resistance conferred by insulin and transferrin supplement is of interest as insulin receptor is overexpressed in about 90% primary CML cells. The key insulin downstream target phosphatidylinositol-3 kinase (PI3K) is required for BCR-ABL mediated transformation and inhibition of PI3K-Akt-mTor pathway has been explored to overcome CML chemoresistance. SIRT1 is a key gene for regulating insulin secretion and directly regulates Akt downstream target FOXO proteins through deacetylation. Therefore, the effect of insulin itself for transient resistance to imatinib and the response of sirtinol treatment were examined.

[10] = test system: Aurora A; experiment: Expression of Aurora kinases by Western blot in KCL-22M cells; type: cell-based, human; conditions: two days of drug treatment
[11] = Solubility; type: physicochemical
[12] = test system: K562 cells; experiment: Cell growth, apoptosis (annexin V) and cell cycle analysis; type: cell-based, human
Procedure: (§2) One half million cells per well were seeded in a 24-well plate and at 2 and 4 days after initiation of drug treatment, surviving cells were counted (A, B). […] The percentage of annexin V positive cells including early and late apoptotic cells was plotted underneath FACS charts.
(§3) Cell apoptosis was analyzed with annexin V kit (BD Pharminggen) as per the manufacturer's instruction.

[13] = test system: KCL-22 cells; experiment: as above; type: cell-based, human
Procedure: as §2, §3

[14] = 50 μM sirtinol with 1 μM STI-571
[15] = two days treatment, PI staining

Nc1ncn([C@H]2C[C@H](O)[C@@H](CO)O2)c(=O)n1 [AZA, 5-aza-2-deoxycytidine]
growth of KCL-22M cells ([1]; 1 μM inhibitor): inhibited its growth but did not promote significant cell death
reactivation of HIC1 expression / reduction of SIRT1 level [2]: could not reactivate HIC1 expression or reduce SIRT1 level
relapse on AZA plus STI-571 ([3]; 1 μM AZA with STI-571): did successfully block relapse on 2.5 and 5 μM; also recorded: blocked relapse at 2.5 and 5 μM of STI-571

CC(=O)N[C@@H](CS)C(=O)O [NAC, N-acetylcysteine]
cytotoxicity ([3]; 50 mM NAC): significant cytotoxicity

Cc1cn(-c2cc(NC(=O)c3ccc(C)c(Nc4nccc(-c5cccnc5)n4)c3)cc(C(F)(F)F)c2)cn1 [Nilotinib]
BCR-ABL mutants inhibited [4]: inhibits most of the known mutants with the exception of the T315I mutation

Cc1cc(Nc2cc(N3CCN(C)CC3)nc(Sc3ccc(NC(=O)C4CC4)cc3)n2)n[nH]1 [VX-680]
clinical response [5]: Three CML patients with T315I mutation responded
inhibition of T315I BCR-ABL [4]: potently inhibits

O=C(NN=Cc1c(O)ccc2ccccc12)c1ccncc1 [compound 22, N′-((2-hydroxyl-1-naphthyl)methylene)isonicotinohydrazide]
SIRT1 inhibition in FRET-based biochemical assay [6]: outperformed sirtinol and tenovin-6
inhibitory activity (block of CML relapse) compared with compound 163580 [3]: better inhibitory activity than 163580
acetylation of FOXO1 [7]: outperformed sirtinol and tenovin-6

CC(=NNC(=O)c1ccncc1)c1ccc2ccccc2c1O [compound 24, N′-(1-(1-hydroxy-2-naphthyl)ethylidene)isonicotinohydrazide]
SIRT1 inhibition in FRET-based biochemical assay [6]: outperformed sirtinol and tenovin-6
inhibitory activity (block of CML relapse) compared with compound 163580 [3]: better inhibitory activity than 163580
acetylation of FOXO1 [7]: outperformed sirtinol and tenovin-6

Oc1ccc2ccccc2c1C1=NNc2n[nH]c(=S)n2N1 [compound 163580]
prevention of CML cell relapse upon imatinib compared with sirtinol (50 μM) [3]: more effective in preventing CML cell relapse upon imatinib treatment than an effective dose of sirtinol

COc1ccc2nc3cc(Cl)ccc3c(NCCCCN3CCCC3)c2n1.Cl.Cl.Cl [compound 261408]
prevention of CML cell relapse upon imatinib compared with sirtinol (50 μM) [3]: more effective in preventing CML cell relapse upon imatinib treatment than an effective dose of sirtinol
toxicity to cells [3]: too toxic to cells

Clc1ccc2nc(CCSCCc3nc4ccc(Cl)cc4[nH]3)[nH]c2c1 [compound 628445]
prevention of CML cell relapse upon imatinib compared with sirtinol (50 μM) [3]: more effective in preventing CML cell relapse upon imatinib treatment than an effective dose of sirtinol

CCN(C(C)=O)c1cnc(C=NNC(N)=S)c2ccccc12 [compound 687305]
prevention of CML cell relapse upon imatinib compared with sirtinol (50 μM) [3]: more effective in preventing CML cell relapse upon imatinib treatment than an effective dose of sirtinol

NC(=O)c1cccnc1 [nicotinamide]
lowest dose that blocked relapse on imatinib [3]: 1 µM
relapse of KCL-22 cells on 5 μM STI-571 in combination [3]: effectively blocked; also recorded: blocked relapse
cell death by the inhibitor alone [3]: did not, by themselves, induce significant cell death
relapse of KCL-22 cells on imatinib (STI-571) in combination with the inhibitor [3]: blocks relapse

CC(NC(=O)c1ccccc1/N=C/c1c(O)ccc2ccccc12)c1ccccc1 (centres unmarked) [sirtinol]
cell death of KCL-22M cells, combination ([1]; 50 μM sirtinol with 1 μM AZA): induced partial cell death
growth of KCL-22M cells, combination ([1]; sirtinol (50 μM) with STI-571 ([…])): able to inhibit cell growth
effect of sirtinol on SD1 cells [8]: eliminated these cells
transient resistance to 1 μM STI-571 from basic supplements in serum medium ([9]; 50 μM sirtinol): abolished this transient resistance
transient resistance to 1 μM STI-571 from insulin ([9]; sirtinol alone or in combination with STI-571): abolished this transient resistance
cell killing in SF culture ([9]; sirtinol alone or with STI-571, K562 and KCL-22 cells, no relapse): rapid killing
Aurora A protein in KCL-22M cells [10]: degraded
effective concentration in vivo (limited by solubility) [11]: not obtainable in vivo
solubility in SF medium ([11]; serum-free medium): insoluble
cell growth ([12]; 50 μM sirtinol alone): inhibited the growth
growth inhibition, combination [12, 14]: synergized their inhibitory effects
apoptosis (annexin V) ([12]; sirtinol alone): significantly induced annexin V positive apoptotic cells
apoptosis (annexin V), combination ([12]; sirtinol combined with STI-571): induced more dramatic apoptosis than each individual drug
cell cycle [12, 15]: rapidly increased sub-G1 and apoptotic fraction
cell growth ([13]; 50 μM sirtinol alone): inhibited the growth
growth inhibition, combination [13, 14]: synergized their inhibitory effects
apoptosis (annexin V) ([13]; sirtinol alone): significantly induced annexin V positive apoptotic cells
apoptosis (annexin V), combination ([13]; sirtinol combined with STI-571): induced more dramatic apoptosis than each individual drug
cell cycle [13, 15]: reducing S/G2 and increasing sub-G1 population
recurrence on nilotinib or dasatinib in combination with SIRT1 inhibitor [3]: effectively blocked the recurrence
relapse on 1 μM Dasatinib in combination with sirtinol [3]: blocked relapse
relapse on […] Nilotinib in combination with SIRT1 inhibitor [3]: blocked relapse
relapse on sirtinol alone ([3]; 50 μM sirtinol alone): resulted in relapse after two weeks
relapse of KCL-22 cells on imatinib (STI-571) in combination with the inhibitor [3]: blocks relapse
relapse of KCL-22 cells on imatinib (STI-571) in combination with the inhibitor ([3]; listed as Sirtinol): blocked relapse at all dosages of STI-571

O=C1CCc2c(ccc3ccccc23)O1 [splitomicin]
relapse of KCL-22 cells on 5 μM STI-571 in combination [3]: effectively blocked; also recorded: blocked relapse
cell death by the inhibitor alone [3]: did not, by themselves, induce significant cell death
relapse of KCL-22 cells on imatinib (STI-571) in combination with the inhibitor [3]: blocks relapse

From patent US9176114B2, “Cell culture model for acquired chemoresistance of chronic myelogenous leukemia and related methods for identifying agents to overcome resistance” (CITY OF HOPE, priority 2007, dated 2015)
